The record followed here is patent US10485235B2, “Aryloxypyrimidinyl ethers as herbicides” (FMC Corporation, priority 2015, dated 2019).

For data set [1], the system named is barnyardgrass (Echinochloa crus-galli). Kind of data set: Test A preemergence, barnyardgrass. The data set is classed as in vivo. To be noted: Echinochloa crus-galli, pre-emergence, 240 h, Preemergence, 0 to 100 scale (0 no effect, 100 complete control), read-out: Plant response rating, Barnyardgrass; for pest or weed control at 31 g/ha: 31 g ai/ha; for pest or weed control at 125 g/ha: 125 g ai/ha; for pest or weed control at 500 g/ha: 500 g ai/ha. Put shortly:
(§1)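 Ratings run 0–100, where 100 is complete control, and were scored visually against untreated plants about 10 days after treatment under greenhouse conditions. Formulated chemicals were sprayed either onto the soil surface after seeding (preemergence) or onto one- to two-leaf seedlings 2–10 cm high (postemergence).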

Data set [2] deals with ducksalad (Heteranthera limosa). Description: Test B flooded paddy test, ducksalad. It is filed as in vivo. The settings on record: Heteranthera limosa; 250 g ai/ha, Flood; visual rating after 13 to 15 days; scale 0 to 100, 0 is no effect, 100 is complete control; read-out: Plant response rating, Ducksalad. Put shortly: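 Plants grown to 2-leaf stage, pots flooded to 3 cm above soil and compound applied directly to paddy water, depth maintained throughout. After 13-15 days in greenhouse, visual rating against untreated controls on 0-100 scale (0 no effect, 100 complete control).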

The test system of data set [3] is ryegrass, Italian (Italian ryegrass, Lolium multiflorum). Kind of data set: Test A postemergence, Italian ryegrass. The data set is classed as in vivo. The settings on record: Lolium multiflorum, post-emergence, 240 h, postemergence, 0 to 100 scale, 0 is no effect, 100 is complete control, approximately 10 days, read-out: Plant response rating, Ryegrass, Italian; for pest or weed control at 31 g/ha: 31 g ai/ha; for pest or weed control at 125 g/ha: 125 g ai/ha; for pest or weed control at 500 g/ha: 500 g ai/ha. Put shortly:
as §1

Data set [4] has as its system pigweed (Amaranthus retroflexus). Kind of data set: Test A postemergence, pigweed. It is filed as in vivo. To be noted: Amaranthus retroflexus, post-emergence, 240 h, postemergence, 0 to 100 scale, 0 is no effect, 100 is complete control, approximately 10 days, read-out: Plant response rating, Pigweed; for pest or weed control at 31 g/ha: 31 g ai/ha; for pest or weed control at 125 g/ha: 125 g ai/ha; for pest or weed control at 500 g/ha: 500 g ai/ha. Put shortly:
as §1

For data set [5] the test system is unchanged. Description: Test A preemergence, pigweed. It is filed as in vivo. To be noted: Amaranthus retroflexus, pre-emergence, 240 h, Preemergence, 0 to 100 scale (0 no effect, 100 complete control), read-out: Plant response rating, Pigweed; for pest or weed control at 31 g/ha: 31 g ai/ha; for pest or weed control at 125 g/ha: 125 g ai/ha; for pest or weed control at 500 g/ha: 500 g ai/ha. Put shortly: as §1

Molecules are shown by their SMILES.

As for `Cc1cccc(Oc2ncc(Cl)cn2)c1OCC(F)(F)F` [Compound 63], the pest or weed control at 31 g/ha in data set [1], in data set [3], in data set [4] and in data set [5] was 0% in each case. In addition, the pest or weed control at 125 g/ha in data set [1], in data set [3], in data set [4] and in data set [5] was 0% throughout. For the same compound, the pest or weed control at 250 g/ha in data set [2] is 100%.
`FC(F)(F)COc1c(Cl)cccc1Oc1ncc(Cl)cn1` [Compound 42]: the pest or weed control at 31 g/ha in data set [1] is 0%; in data set [3], 0%; in data set [4] it was 20%; in data set [5] it was 0%. For the same compound, the pest or weed control at 125 g/ha turned out to be 10% in data set [1], 0% in data set [3], 60% in data set [4] and 60% in data set [5]. Further, the pest or weed control at 250 g/ha in data set [2] is 70%.
For the compound `FC(F)C(F)(F)COc1c(Br)cccc1Oc1ncc(Cl)cn1` [Compound 18, 2-[3-bromo-2-(2,2,3,3-tetrafluoropropoxy)phenoxy]-5-chloropyrimidine], the pest or weed control at 125 g/ha in data set [1] came out at 100%; in data set [3], 0%; in data set [4] it was 100%; in data set [5], 100%. Further, the pest or weed control at 500 g/ha came out at 100% in data set [1], 60% in data set [3], 100% in data set [4] and 100% in data set [5]. The pest or weed control at 250 g/ha in data set [2] is 30%.
What is called melting point is the temperature, or range, at which the solid turns liquid. `N#Cc1cccc(Oc2ncc(Cl)cn2)c1OC/C=C/C(F)(F)F` [Compound 8, 3-[(5-chloro-2-pyrimidinyl)oxy]-2-[[(2E)-4,4,4-trifluoro-2-buten-1-yl]oxy]benzonitrile] displayed a melting point of 102 to 106 °C. For the same compound, in data set [1], the pest or weed control at 31 g/ha is 30% and the pest or weed control at 125 g/ha came to 100%. In data set [2], the pest or weed control at 250 g/ha worked out at 75%. Further, in data set [3], the pest or weed control at 31 g/ha came to 10% and the pest or weed control at 125 g/ha stood at 60%. In data set [4], the pest or weed control at 31 g/ha turned out to be 90% and the pest or weed control at 125 g/ha is 100%. In data set [5], the pest or weed control at 31 g/ha came out at 100% and the pest or weed control at 125 g/ha worked out at 100%.
Turning to `Fc1cccc(Oc2ncc(Cl)cn2)c1OCC(F)(F)F` [Compound 28], the pest or weed control at 125 g/ha in data set [1] stood at 10%; in data set [3], 0%; in data set [4], 30%; in data set [5], 0%. The pest or weed control at 500 g/ha in data set [1] is 70%; in data set [3] it was 0%; in data set [4], 70%; in data set [5] it was 100%. In addition, in data set [2], the pest or weed control at 250 g/ha worked out at 30%.
In turn, `N#Cc1cccc(Oc2ncc(Cl)cn2)c1OCCCC(F)(F)F` [Compound 5, 3-[(5-chloro-2-pyrimidinyl)oxy]-2-(4,4,4-trifluorobutoxy)benzonitrile] had a melting point of 51 to 54 °C. For the same compound, in data set [1], the pest or weed control at 31 g/ha was 80% and the pest or weed control at 125 g/ha stood at 100%. For the same compound, the pest or weed control at 250 g/ha in data set [2] came to 90%. Further, in data set [3], the pest or weed control at 31 g/ha turned out to be 20% and the pest or weed control at 125 g/ha turned out to be 40%. In data set [4], the pest or weed control at 31 g/ha turned out to be 100% and the pest or weed control at 125 g/ha turned out to be 100%. In data set [5], the pest or weed control at 31 g/ha amounted to 90% and the pest or weed control at 125 g/ha came out at 90%.
As to `CCCCOc1c(C#N)cccc1Oc1ncc(Cl)cn1` [Compound 35, 2-butoxy-3-[(5-chloro-2-pyrimidinyl)oxy]benzonitrile], the pest or weed control at 125 g/ha came out at 100% in data set [1], 40% in data set [3], 90% in data set [4] and 100% in data set [5]. In addition, the pest or weed control at 500 g/ha in data set [1] came to 100%; in data set [3] it was 80%; in data set [4], 100%; in data set [5], 100%. For the same compound, the pest or weed control at 250 g/ha in data set [2] was determined as 65%.
Consider `N#Cc1cccc(Oc2ncc(Cl)cn2)c1OCC(F)(F)C(F)(F)F` [Compound 10, 3-[(5-chloro-2-pyrimidinyl)oxy]-2-(2,2,3,3,3-pentafluoropropoxy)benzonitrile], for which the pest or weed control at 125 g/ha in data set [1] came out at 100%; in data set [3], 30%; in data set [4] it was 100%; in data set [5], 100%. The pest or weed control at 500 g/ha in data set [1] came to 100%; in data set [3], 90%; in data set [4] it was 100%; in data set [5], 100%. Besides, in data set [2], the pest or weed control at 250 g/ha amounted to 70%.
For `N#Cc1cccc(Oc2ncc(Cl)cn2)c1OCCC(F)(F)F` [Compound 23, 3-[(5-chloro-2-pyrimidinyl)oxy]-2-(3,3,3-trifluoropropoxy)benzonitrile], the pest or weed control at 31 g/ha was 70% in data set [1], 20% in data set [3], 100% in data set [4] and 100% in data set [5]. In addition, the pest or weed control at 125 g/ha turned out to be 100% in data set [1], 40% in data set [3], 100% in data set [4] and 100% in data set [5]. For the same compound, in data set [2], the pest or weed control at 250 g/ha was 100%.
The compound `N#Cc1cccc(Oc2ncc(F)cn2)c1OCC(F)(F)F` [Compound 41] gave a melting point of 58 to 63 °C. Also, in data set [1], the pest or weed control at 31 g/ha stood at 0% and the pest or weed control at 125 g/ha stood at 40%. In addition, in data set [3], the pest or weed control at 31 g/ha stood at 0% and the pest or weed control at 125 g/ha amounted to 10%. In data set [4], the pest or weed control at 31 g/ha is 30% and the pest or weed control at 125 g/ha was determined as 70%. In data set [5], the pest or weed control at 31 g/ha came out at 100% and the pest or weed control at 125 g/ha is 100%.
Regarding `CCCCOc1c(Br)cccc1Oc1ncc(Cl)cn1` [Compound 13, 2-[3-bromo-2-(butoxy)phenoxy]-5-chloropyrimidine], the pest or weed control at 125 g/ha in data set [1] worked out at 100%; in data set [3], 20%; in data set [4], 100%; in data set [5] it was 100%. Besides, the pest or weed control at 500 g/ha in data set [1] was 100%; in data set [3], 90%; in data set [4], 100%; in data set [5], 100%. The pest or weed control at 250 g/ha in data set [2] is 50%.
With `N#Cc1cccc(Oc2ncc(Cl)cn2)c1OCC(F)(F)F` [Compound 1], the pest or weed control at 31 g/ha in data set [1] stood at 10%; in data set [3], 0%; in data set [4], 60%; in data set [5], 100%. Besides, the pest or weed control at 125 g/ha came to 80% in data set [1], 0% in data set [3], 90% in data set [4] and 100% in data set [5].
